This note sets out measurements from US8765779B2, “Tricyclic derivatives and their pharmaceutical use and compositions” (Cephalon, Inc., priority 2009, dated 2014).

The assay deals with T1, human 5-HT6 receptor (Homo sapiens, UniProt P50406).
T1 construct: host or cells: CHO-K1 cells, stably transfected; membranes prepared in house
Nature of the assay: Human 5-HT6 Receptor Binding Assay ([3H]LSD displacement, scintillation beads). To be noted: membranes of CHO-K1 cells with recombinant human 5-HT6, 4 nM [3H]LSD, read-out: h5-HT6 (Ki).

Where a name gives a salt, the structure may show the parent alone. Read-outs that look alike come from different tables or passages of the source.

T1 sequence (P50406 whole entry): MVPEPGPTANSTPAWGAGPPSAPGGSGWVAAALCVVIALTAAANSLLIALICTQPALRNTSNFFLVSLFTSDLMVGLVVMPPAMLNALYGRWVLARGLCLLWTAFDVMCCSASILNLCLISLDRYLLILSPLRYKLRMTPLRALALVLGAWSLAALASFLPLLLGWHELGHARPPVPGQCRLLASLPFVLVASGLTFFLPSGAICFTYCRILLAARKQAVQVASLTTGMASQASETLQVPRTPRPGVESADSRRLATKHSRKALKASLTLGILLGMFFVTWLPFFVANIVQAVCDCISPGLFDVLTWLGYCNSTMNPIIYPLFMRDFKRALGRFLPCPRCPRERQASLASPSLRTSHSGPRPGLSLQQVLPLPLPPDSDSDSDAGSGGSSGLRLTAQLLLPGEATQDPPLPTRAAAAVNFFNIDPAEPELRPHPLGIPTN

Regarding `O=[N+]([O-])c1ccc(S(=O)(=O)c2ccc3c(c2)OC2CNCCC32)cc1` (stereo not shown) [Example 124], where the note is “Table 1, class symbols”, the inhibitory constant (Ki) (in general, a dissociation constant, usually derived from enzyme kinetics or from competition with a known ligand) was above 1000 nM.
Same read-out and setting: to `O=S(=O)(Oc1ccc2c(c1)OC1CNCCC21)c1ccccc1Cl` (stereo not shown) [Example 654] belongs below 500 nM; to `CC(=O)NCCC1NCCc2c1oc1cc(S(=O)(=O)c3cccc(F)c3)ccc21` (racemic) [Example 536, N-(2-{7-[(3-fluorophenyl)sulfonyl]-1,2,3,4-tetrahydro[1]benzofuro[2,3-c]pyridin-1-yl}ethyl)acetamide], below 500 nM.
On to `COc1ccc(S(=O)(=O)Oc2ccc3c(c2)C2(C)CCNCC2O3)cc1` (stereo not shown) [Example 760], for which the Ki (Table 1, class symbols) is above 1000 nM.
Still for that read-out and setting: under `O=S(=O)(c1ccc2oc3c(c2c1)CCNC3)c1cccnc1OCC(F)(F)F` [Example 448] stands below 500 nM; under `Cc1cccc(S(=O)(=O)c2ccc3c(c2)OC2CNCCC32)n1` (stereo not shown) [Example 328], below 500 nM; under `[O-][S+](c1ccc2c(c1)OC1CNCCC21)c1cccnc1F` (stereo not shown) [Example 383], above 1000 nM.
Same read-out and setting: under `Cc1ccc(S(=O)(=O)Oc2ccc3c(c2)C2CCNCC2O3)cc1C` (stereo not shown) [Example 706] stands below 500 nM; under `O=S(=O)(c1cccc(Cl)c1)c1ccc2c3c(oc2c1)C(C1CCOCC1)NCC3` (stereo not shown) [Example 500], below 500 nM.
The same measure, in the same setting: under `O=S(=O)(c1cc(F)cc(Cl)c1)c1ccc2c(c1)OC1CNCCC21` (stereo not shown) [Example 147] stands below 500 nM.
`O=S(=O)(c1ccc(F)c(F)c1)c1ccc2c(c1)OC1CNCCC21` (stereo not shown) [Example 128]: for the setting “Table 1, class symbols”, the Ki is below 500 nM.
On to `N#Cc1ccc(S(=O)(=O)c2ccc3c(c2)OC2CNCCC32)cc1` (stereo not shown) [Example 139], for which the Ki (Table 1, class symbols) was above 1000 nM.
Still for that read-out and setting: under `O=S(=O)(c1ccccc1)c1ccc2oc3c(c2c1)CCNC3` [Example 348] stands below 500 nM; under `O=S(=O)(c1cccc(Cl)c1Cl)c1cccc2c1OC1CNCCC21` (stereo not shown) [Example 338], below 500 nM; under `CC12CCNCC1Oc1ccc(OS(=O)(=O)CCc3ccccc3)cc12` (stereo not shown) [Example 785], above 1000 nM.
As to `CC(C)CN1CCc2c(oc3cc(S(=O)(=O)c4cccc(Cl)c4)ccc23)C1` [Example 600], the Ki (Table 1, class symbols) is below 500 nM.
Turning to `CC(=O)Nc1ccc(S(=O)(=O)Oc2ccc3c(c2)OC2CNCCC32)cc1` (stereo not shown) [Example 667], the Ki (Table 1, class symbols) is above 1000 nM.
For the molecule `Cc1cccc(S(=O)(=O)c2ccc3c4c(oc3c2)CNCC4)n1` [Example 343, 7-[(6-methylpyridin-2-yl)sulfonyl]-1,2,3,4-tetrahydro[1]benzofuro[2,3-c]pyridine], the Ki reads like this: (Table 1, class symbols) below 500 nM; (specific data) 6.6 nM.
In the case of `O=[N+]([O-])c1ccc(S(=O)(=O)Oc2ccc3c(c2)C2CCNCC2O3)cc1` (stereo not shown) [Example 749], the Ki (Table 1, class symbols) is above 1000 nM.
Same read-out and setting: to `O=S(=O)(Oc1ccc2c(c1)OC1CNCCC21)c1ccc(F)c(Cl)c1` (stereo not shown) [Example 663] belongs below 500 nM.
On to `O=S(=O)(c1cccc(Cl)c1)c1ccc2c3c(oc2c1)CN(CCc1ccccc1)CC3` [Example 602], for which, where the note is “Table 1, class symbols”, the Ki was below 500 nM.
Still for that read-out and setting: under `O=S(=O)(c1cccc(OC(F)(F)F)c1)c1ccc2c(c1)OC1CNCCC21` (stereo not shown) [Example 160, 7-{[3-(trifluoromethoxy)phenyl]sulfo-nyl}-1,2,3,4,4a,9a-hexahydro[1]benzofuro[2,3-c]pyridine] stands below 500 nM.
Turning to `COC(=O)CCCCOc1cccc(S(=O)(=O)c2ccc3c(c2)OC2CNCCC32)c1` (stereo not shown) [Example 556], for the setting “Table 1, class symbols”, the inhibition constant Ki was below 500 nM.
Consider `Cc1ccc(S(=O)(=O)c2ccc3c(c2)C2CCNCC2O3)cc1` (stereo not shown) [Example 174], for which the inhibition constant (Ki) (Table 1, class symbols) was above 1000 nM.
Regarding `O=S(=O)(Oc1ccc2c(c1)OC1CNCCC21)c1ccc(OC(F)(F)F)cc1` (stereo not shown) [Example 682], the Ki (Table 1, class symbols) was below 500 nM.
As for `COc1ccc(S(=O)(=O)c2ccc3c(c2)OC2CNCCC32C)cc1` (racemic) [Example 5, 7-[(4-methoxyphenyl)sulfonyl]-4a-methyl-1,2,3,4,4a,9a-hexahydro[1]benzofuro[2,3-c]pyridine], the Ki (Table 1, class symbols) lay in the range of 500 to 1000 nM.
The same measure, in the same setting: to `O=S(=O)(Oc1ccc2c(c1)C1CCNCC1O2)c1ccc(-n2cccn2)cc1` (stereo not shown) [Example 733] belongs 500 to 1000 nM; to `O=S(=O)(Oc1ccc2c(c1)C1CCNCC1O2)c1cccc2nsnc12` (stereo not shown) [Example 730], above 1000 nM; to `O=S(=O)(c1cccc(Cl)c1)c1ccc2c3c(oc2c1)CN(CCCO)CC3` [Example 601], below 500 nM.
Take `CC12CCNCC1Oc1ccc(S(=O)(=O)c3ccncc3)cc12` (racemic) [Example 13, 4a-methyl-6-(pyridin-4-ylsulfonyl)-1,2,3,4,4a,9a-hexahydro[1]benzofuro[2,3-c]pyridine]: the Ki (Table 1, class symbols) was above 1000 nM.
Take `O=S(=O)(c1ccc2c3c(oc2c1)CNCC3)c1ccccc1F` [Example 231]: the Ki (Table 1, class symbols) was below 500 nM.
As for `CC(C)c1ccc(S(=O)(=O)Oc2ccc3c(c2)OC2CNCCC32)cc1` (stereo not shown) [Example 794], the Ki (Table 1, class symbols) is below 500 nM.
As for `COc1ccc(S(=O)(=O)c2ccc3oc4c(c3c2)CCNC4)cc1F` [Example 241], the Ki (Table 1, class symbols) was below 500 nM.
Same read-out and setting: to `O=S(=O)(c1ccc2c3c(oc2c1)[C@@]1(CCOC1)NCC3)c1cc(F)ccc1F` (single isomer, unassigned) [Example 109] belongs below 500 nM.
Turning to `O=S(=O)(c1cccc(F)c1)c1ccc2c3c(oc2c1)C(C(F)F)NCC3` (stereo not shown) [Example 509], the Ki (Table 1, class symbols) is below 500 nM.
`CC(=O)NCC1(C)NCCc2c1oc1cc(S(=O)(=O)c3cccc(F)c3)ccc21` (stereo not shown) [Example 632, N-({7-[(3-fluorophenyl)sulfonyl]-1-methyl-1,2,3,4-tetrahydro[1]benzofuro[2,3-c]pyridin-1-yl}methyl)acetamide]: the inhibitory constant (Ki) (Table 1, class symbols) is below 500 nM.
On to `O=S(=O)(c1ccc(Cl)cc1)c1ccc2c(c1)C1CCNCC1O2` (stereo not shown) [Example 335], for which the Ki (Table 1, class symbols) was above 1000 nM.
On to `O=S(=O)(Nc1ccccc1F)c1ccc2c(c1)C1CCNCC1O2` (stereo not shown) [Example 839], for which, under “Table 1, class symbols”, the Ki is above 1000 nM.
In the case of `CC1(C)NCCc2c1oc1ccc(S(=O)(=O)c3cccc(F)c3)cc21` [Example 42, 6-[(3-fluorophenyl)sulfonyl]-1,1-dimethyl-1,2,3,4-tetrahydro[1]benzofuro[2,3-c]pyridine], under “Table 1, class symbols”, the Ki fell in the range of 500 to 1000 nM.
Same read-out and setting: to `CC(=O)N1CCC2c3cc(NS(=O)(=O)c4c(Cl)nc5sccn45)ccc3OC2C1` (stereo not shown) [Example 816] belongs 500 to 1000 nM; to `O=S(=O)(c1cccc(Oc2ccccn2)c1)c1ccc2c(c1)OC1CNCCC21` (stereo not shown) [Example 579], below 500 nM.
As for `O=S(=O)(c1ccccc1)c1ccc2c(c1)OC1CN(C3CCCC3)CCC21` (stereo not shown) [Example 609], the Ki (Table 1, class symbols) was below 500 nM.
`O=S(=O)(c1cccc(Cl)c1)c1ccc2c3c(oc2c1)C(CCBr)NCC3` (stereo not shown) [Example 501, 1-(2-bromoethyl)-7-[(3-chlorophenyl)sulfonyl]-1,2,3,4-tetrahydro[1]benzofuro[2,3-c]pyridine]: under “Table 1, class symbols”, the Ki is below 500 nM.
`O=S(=O)(Oc1ccc2c(c1)C1CCNCC1O2)c1ccccc1Cl` (stereo not shown) [Example 711]: the Ki (Table 1, class symbols) is below 500 nM.
Regarding `CC(C)S(=O)(=O)Nc1ccc2c(c1)C1CCNCC1O2` (stereo not shown) [Example 832], the Ki (Table 1, class symbols) was above 1000 nM.
The same measure, in the same setting: to `CC(C)Oc1cccc(S(=O)(=O)c2ccc3c(c2)OC2CNCCC32)c1F` (stereo not shown) [Example 483] belongs below 500 nM; to `O=S(=O)(c1cccc(F)c1)c1ccc2oc3c(c2c1)CCNC3C1CCOCC1` (stereo not shown) [Example 520], below 500 nM.
Take `O=S(=O)(c1cc(F)cc(F)c1)c1ccc2c3c(oc2c1)CNCC3` [Example 107, 7-(3,5-Difluoro-benzenesulfonyl)-1,2,3,4-tetrahydro-benzo[4,5]furo[2,3-c]pyridine hydrochloride]: the Ki (Table 1, class symbols) is below 500 nM.
Consider `O=S(=O)(c1cccc(Cl)c1)c1ccc2c3c(oc2c1)C(C1CC1)NCC3` (stereo not shown) [Example 503], for which the Ki (Table 1, class symbols) is below 500 nM.
On the same count and under the same terms, under `CC1(C)CNC2(CCOCC2)c2oc3cc(S(=O)(=O)c4cccc(F)c4)ccc3c21` [Example 2, 7-[(3-fluorophenyl)sulfonyl]-4,4-dimethyl-2′,3,3′,4,5′,6′-hexahydro-2H-spiro[1-benzofuro[2,3-c]pyridine-1,4′-pyran]] stands below 500 nM; under `O=S(=O)(c1cc(F)cc(Cl)c1)c1ccc2c(c1)OC1CNCCC21` (stereo not shown) [Example 163], below 500 nM; under `O=S(=O)(c1cccc(F)c1)c1ccc2oc3c(c2c1)CCNC3C1CCCC1` (stereo not shown) [Example 513], below 500 nM.
`COc1ccc(S(=O)(=O)c2ccc3oc4c(c3c2)CCNC4)cc1OC` [Example 242]: the Ki (Table 1, class symbols) was above 1000 nM.
The same measure, in the same setting: under `O=S(=O)(Nc1ccc2c(c1)C1CCNCC1O2)c1cc(Cl)cc(Cl)c1` (stereo not shown) [Example 828] stands below 500 nM.
As to `COc1cccc(S(=O)(=O)c2ccc3c(c2)OC2CNCCC32)c1` (stereo not shown) [Example 118], the Ki (Table 1, class symbols) is below 500 nM.
Same read-out and setting: to `CC1NCCc2c1oc1ccc(S(=O)(=O)c3ccc(F)c(F)c3)cc21` (stereo not shown) [Example 284] belongs below 500 nM.
Take `CC1(C)NCCc2c1oc1cc(S(=O)(=O)c3ccccc3)ccc21` [Example 292]: the Ki (Table 1, class symbols) was below 500 nM.
For the molecule `O=S(=O)(Oc1ccc2c(c1)C1CCNCC1O2)c1ccccc1C(F)(F)F` (stereo not shown) [Example 736], the Ki (Table 1, class symbols) is above 1000 nM.
Same read-out and setting: under `COc1ccc(S(=O)(=O)c2ccc3c(c2)OC2CNCCC32)cc1` (stereo not shown) [Example 323] stands above 1000 nM; under `CC12CCNCC1Oc1ccc(OS(=O)(=O)c3ccc(-c4ccon4)s3)cc12` (stereo not shown) [Example 781], above 1000 nM.
Same read-out and setting: under `CC12CCNCC1Oc1cc(S(=O)(=O)c3cncc(C(F)(F)F)c3)ccc12` (stereo not shown) [Example 431] stands above 1000 nM; under `O=S(=O)(c1ccc2c3c(oc2c1)CNCC3)c1cc(F)ccc1F` [Example 223], below 500 nM.
For `Cc1ccc(F)cc1S(=O)(=O)c1ccc2oc3c(c2c1)CCNC3` [Example 254], for the setting “Table 1, class symbols”, the Ki is below 500 nM.
For the molecule `Cc1ccc(S(=O)(=O)Oc2ccc3c(c2)OC2CNCCC32)cc1` (stereo not shown) [Example 642], the Ki (Table 1, class symbols) is below 500 nM.
`O=S(=O)(c1ccc2c(c1)OC1CNCCC21)c1cccc(OCC2CCOCC2)c1F` (stereo not shown) [Example 482]: the Ki (Table 1, class symbols) is below 500 nM.
The same measure, in the same setting: to `CC1(C)CNC2(CCOC2)c2oc3cc(S(=O)(=O)c4cncc(Cl)c4)ccc3c21` (stereo not shown) [Example 456] belongs below 500 nM.
